Measurements from PMC8873464, “Tuning the rate of aggregation of hIAPP into amyloid using small-molecule modulators of assembly” (Nature Communications, 2022).

Experiments:
Type in all cases: binding
[1] = biological target: T1, human islet amyloid polypeptide (wt hIAPP) (Homo sapiens, UniProt P10997); assay: Tyr37 fluorescence quenching titration; also SPR (Kd […]) and native ESI-MS/CID; known inhibitor used as control
T1 construct: gene IAPP; 37-residue synthetic peptide, amidated C-terminus, Cys-2/Cys-7 disulfide, monomeric
T1 sequence (P10997 34-70 limits assumed): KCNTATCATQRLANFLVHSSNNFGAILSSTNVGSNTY

[2] = biological target: T1, human islet amyloid polypeptide (wt hIAPP); assay: Tyr37 fluorescence quenching and native ESI-MS (weak adduct); ThT acceleration of aggregation; no SPR response, no significant NMR CSPs
[3] = biological target: T1, human islet amyloid polypeptide (wt hIAPP); assay: Tyr37 fluorescence quenching titration; also native ESI-MS, SPR (Kd […]), 2D NMR CSPs and ThT aggregation inhibition

SMILES: O=C(O[C@@H]1Cc2c(O)cc(O)cc2O[C@@H]1c1cc(O)c(O)c(O)c1)c1cc(O)c(O)c(O)c1 [EGCG]
- Kd [1]: 13 µM

SMILES: O=C(Nc1ccccc1F)c1cnc(-c2ccccc2)nc1CCNC(=O)C1CCCCC1 [YX-A-1]
- Kd [2]: ~280 µM

SMILES: CC(=O)N[C@H]1C[C@@H](c2ccc(NC(=O)Cn3nnc4ccccc43)cc2)O[C@@H](C(C)C)C1 [YX-I-1]
- Kd [3]: 32 µM
